Bridge positions count the residues as written; N and C are the ends. Square brackets hold non-standard residues; d marks the D form. Peptide text beside a SMILES is read from it. * marks the point of attachment. ξ: configuration not given here. Phe(4-COOH) = N[C@@H](Cc1ccc(C(=O)O)cc1)C(=O)O; Bip = N[C@@H](Cc1ccc(-c2ccccc2)cc1)C(=O)O; NH(CH2)14COOH = O=C(O)CCCCCCCCCCCCCCN*; Phe(3-Me) = Cc1cccc(C[C@H](N)C(=O)O)c1; Cyclopropanecarbonyl = O=C(C1CC1)*; Val(3-OH) = CC(C)(O)[C@H](N)C(=O)O; 4Pal = N[C@@H](Cc1ccncc1)C(=O)O; Cha = N[C@@H](CC1CCCCC1)C(=O)O; Cit = NC(=O)NCCC[C@H](N)C(=O)O; Thr(3ξ) = CC(O)[C@H](N)C(=O)O; Tle = CC(C)(C)[C@H](N)C(=O)O; 12Ado = NCCCCCCCCCCCC(=O)O; Carboxymethyl = O=C(O)C*; Orn = NCCC[C@H](N)C(=O)O; Pra = C#CC[C@H](N)C(=O)O; Aun = NCCCCCCCCCCC(=O)O; Dab = NCC[C@H](N)C(=O)O; Dap = NC[C@H](N)C(=O)O; AEEA = NCCOCCOCC(=O)O; Piv = CC(C)(C)C(=O)*
Each compound was assayed against T1, PD-1/PD-L1 interaction (PE-labeled human PD-L1-Ig binding to Jurkat cell line over-expressing human PD-1) (Homo sapiens, UniProt Q15116) (assay: Jurkat-PD-1 Cell Binding High-Content Screening Assay (CBA)). Conditions: Jurkat cell line over-expressing human PD-1; PE-labeled PD-L1-Ig 20 nM final; read-out: Jurkat hPD1-PDL1 IC50.
T1 construct: expressed in transfected cells; host or cells: Jurkat
T1 sequence (Q15116 25-288): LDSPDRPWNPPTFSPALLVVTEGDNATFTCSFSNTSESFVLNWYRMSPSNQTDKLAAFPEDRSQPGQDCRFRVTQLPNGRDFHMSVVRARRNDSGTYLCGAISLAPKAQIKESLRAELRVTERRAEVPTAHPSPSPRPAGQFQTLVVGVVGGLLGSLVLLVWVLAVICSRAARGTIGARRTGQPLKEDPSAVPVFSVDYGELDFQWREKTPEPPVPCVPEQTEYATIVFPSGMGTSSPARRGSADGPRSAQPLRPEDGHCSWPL
Assay type: cell-based
Method in brief: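 Binding of fluorescent PD-L1-Ig (20 nM final) to Jurkat-PD-1 cells was measured by automated imaging after 1 h, following a 2 h compound pre-treatment at 37° C.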

IC50 [µM] | Compound
0.0103 | C#CC[C@H](NC(=O)COCCOCCNC(=O)[C@H](CCN)NC(=O)[C@@H]1CSCC(=O)N[C@@H](Cc2ccncc2)C(=O)N[C@@H](Cc2ccc(OCC(=O)O)cc2)C(=O)N[C@@H](CC(=O)O)C(=O)N[C@@H](Cc2c[nH]c3ccccc23)C(=O)N[C@@H](C(C)C)C(=O)N[C@@H](Cc2ccc(-c3ccccc3)cc2)C(=O)N[C@@H]([C@@H](C)CC)C(=O)N[C@@H](CCCN)C(=O)N[C@H](CC(C)C)C(=O)N[C@@H](CCN)C(=O)N[C@@H](CC(C)C)C(=O)N[C@@H](C(C)C)C(=O)N[C@@H]([C@@H](C)O)C(=O)N1)C(=O)N[C@@H](CN)C(=O)NCCCCCCCCCCC(=O)O [Compound 1193] ({CH2CO}-[4Pal]Y(Carboxymethyl)DWV[Bip]I[Orn][dL][Dab]LVTC[Dab][AEEA][Pra][Dap][Aun]-OH; thioether N-14)
0.0175 | CC(C)C[C@H]1NC(=O)[C@H](CCCN)NC(=O)[C@H](C(C)C)NC(=O)[C@H](Cc2ccc(-c3ccccc3)cc2)NC(=O)[C@H](C(C)C)NC(=O)[C@H](Cc2c[nH]c3ccccc23)NC(=O)[C@H](CC(=O)O)NC(=O)[C@H](Cc2ccncc2)NC(=O)[C@H](Cc2ccc(OCC(=O)O)cc2)NC(=O)CSC[C@@H](C(=O)NCC(=O)NCCOCCOCC(=O)N[C@@H](CCCN)C(=O)NCCCCCCCCCCCC(=O)O)NC(=O)[C@H](CN)NC(=O)[C@H](C(C)C)NC(=O)[C@H](CC2CCCCC2)NC(=O)[C@H](CCN)NC1=O [Compound 3170] ({CH2CO}-Y(Carboxymethyl)[4Pal]DWV[Bip]V[Orn][dL][Dab][Cha]V[Dap]CG[AEEA][Orn][12Ado]-OH; thioether N-14)
0.0311 | Cc1cccc(C[C@@H]2NC(=O)[C@H](CC(=O)O)NC(=O)[C@H](Cc3ccc(OCC(=O)O)cc3)NC(=O)[C@H](CCN)NC(=O)CSC[C@@H](C(=O)N[C@@H](CCN)C(=O)NCCOCCOCC(=O)NCCOCCOCC(=O)N[C@@H](CCC(=O)NCCCCCCCCCCCCCCC(=O)O)C(=O)O)NC(=O)[C@H](Cc3cnc[nH]3)NC(=O)[C@H](C(C)(C)O)NC(=O)[C@H](CC3CCCCC3)NC(=O)[C@H](CCN)NC(=O)[C@@H](CC(C)C)NC(=O)[C@H](CCCN)NC(=O)[C@H](Cc3ccc(C(=O)O)cc3)NC(=O)[C@H](Cc3ccc(-c4ccccc4)cc3)NC(=O)[C@H](Cc3ccc(C(=O)O)cc3)NC2=O)c1 [Compound 1253] ({CH2CO}-[Dab]Y(Carboxymethyl)D[Phe(3-Me)][Phe(4-COOH)][Bip][Phe(4-COOH)][Orn][dL][Dab][Cha][Val(3-OH)]HC[Dab][AEEA][AEEA]E(NH(CH2)14COOH)-OH; thioether N-14)
0.0076 | C#CC[C@H](NC(=O)COCCOCCNC(=O)[C@H](CCCN)NC(=O)[C@@H]1CSCC(=O)N[C@@H](Cc2ccncc2)C(=O)N[C@@H](Cc2ccc(OCC(=O)O)cc2)C(=O)N[C@@H](CC(=O)O)C(=O)N[C@@H](Cc2c[nH]c3ccccc23)C(=O)N[C@@H](C(C)C)C(=O)N[C@@H](Cc2ccc(-c3ccccc3)cc2)C(=O)N[C@@H]([C@@H](C)CC)C(=O)N[C@@H](CCCN)C(=O)N[C@H](CC(C)C)C(=O)N[C@@H](CCN)C(=O)N[C@@H](CC(C)C)C(=O)N[C@@H](C(C)C)C(=O)N[C@@H]([C@@H](C)O)C(=O)N1)C(=O)N[C@@H](CCCN)C(=O)NCCCCCCCCCCC(=O)O [Compound 1201] ({CH2CO}-[4Pal]Y(Carboxymethyl)DWV[Bip]I[Orn][dL][Dab]LVTC[Orn][AEEA][Pra][Orn][Aun]-OH; thioether N-14)
0.0209 | Cc1cccc(C[C@@H]2NC(=O)[C@H](CC(=O)O)NC(=O)[C@H](Cc3ccc(OCC(=O)O)cc3)NC(=O)[C@H](Cc3ccc(OCC(=O)O)cc3)NC(=O)CSC[C@@H](C(=O)NCC(=O)N[C@@H](CCN)C(=O)NCC(=O)NCCCCCCCCCCC(=O)O)NC(=O)[C@H](CO)NC(=O)[C@H](C(C)C)NC(=O)[C@H](CC3CCCCC3)NC(=O)[C@H](CCN)NC(=O)[C@@H](CC(C)C)NC(=O)[C@H](CCCN)NC(=O)[C@H](C(C)C)NC(=O)[C@H](Cc3ccc(-c4ccccc4)cc3)NC(=O)[C@H](CC(C)C)NC2=O)c1 [Compound 1050] ({CH2CO}-Y(Carboxymethyl)Y(Carboxymethyl)D[Phe(3-Me)]L[Bip]V[Orn][dL][Dab][Cha]VSCG[Dab]G[Aun]-OH; thioether N-14)
0.0112 | Cc1cccc(C[C@@H]2NC(=O)[C@H](CC(=O)O)NC(=O)[C@H](Cc3ccc(OCC(=O)O)cc3)NC(=O)[C@H](CN)NC(=O)CSC[C@@H](C(=O)N[C@@H](CCN)C(=O)NCCOCCOCC(=O)NCCCCCCCCCCC(=O)O)NC(=O)[C@H](CCCN)NC(=O)[C@H](C(C)C)NC(=O)[C@H](CC3CCCCC3)NC(=O)[C@H](CCN)NC(=O)[C@@H](CC(C)C)NC(=O)[C@H](CCCN)NC(=O)[C@H](Cc3ccc(OCC(=O)O)cc3)NC(=O)[C@H](Cc3ccc(-c4ccccc4)cc3)NC(=O)[C@H](Cc3ccc(OCC(=O)O)cc3)NC2=O)c1 [Compound 2860] ({CH2CO}-[Dap]Y(Carboxymethyl)D[Phe(3-Me)]Y(Carboxymethyl)[Bip]Y(Carboxymethyl)[Orn][dL][Dab][Cha]V[Orn]C[Dab][AEEA][Aun]-OH; thioether N-14)
0.011 | Cc1cccc(C[C@@H]2NC(=O)[C@H](CC(=O)O)NC(=O)[C@H](Cc3ccc(OCC(=O)O)cc3)NC(=O)[C@H](CN)NC(=O)CSC[C@@H](C(=O)N[C@@H](CCN)C(=O)NCCCCCCCCCCC(=O)O)NC(=O)[C@H](CO)NC(=O)[C@H](C(C)(C)O)NC(=O)[C@H](CC3CCCCC3)NC(=O)[C@H](CCN)NC(=O)[C@@H](CC(C)C)NC(=O)[C@H](CCCN)NC(=O)[C@H](Cc3ccc(OCC(=O)O)cc3)NC(=O)[C@H](Cc3ccc(-c4ccccc4)cc3)NC(=O)[C@H](Cc3ccc(OCC(=O)O)cc3)NC2=O)c1 [Compound 2213] ({CH2CO}-[Dap]Y(Carboxymethyl)D[Phe(3-Me)]Y(Carboxymethyl)[Bip]Y(Carboxymethyl)[Orn][dL][Dab][Cha][Val(3-OH)]SC[Dab][Aun]-OH; thioether N-14)
0.0357 | Cc1cccc(C[C@@H]2NC(=O)[C@H](CC(=O)O)NC(=O)[C@H](Cc3ccc(OCC(=O)O)cc3)NC(=O)[C@H](CNC(=O)C(C)(C)C)NC(=O)CSC[C@@H](C(=O)N[C@@H](CC(N)=O)C(=O)NCCCCCCCCCCC(=O)O)NC(=O)[C@H](C(C)O)NC(=O)[C@H](C(C)(C)C)NC(=O)[C@H](CC3CCCCC3)NC(=O)[C@H](CCN)NC(=O)[C@@H](CC(C)C)NC(=O)[C@H](CCCN)NC(=O)[C@H](Cc3ccc(OCC(=O)O)cc3)NC(=O)[C@H](Cc3ccc(-c4ccccc4)cc3)NC(=O)[C@H](Cc3ccc(O)cc3)NC2=O)c1 (stereo partly drawn) [Compound 3518] ({CH2CO}-[Dap](Piv)Y(Carboxymethyl)D[Phe(3-Me)]Y[Bip]Y(Carboxymethyl)[Orn][dL][Dab][Cha][Tle][Thr(3ξ)]CN[Aun]-OH; thioether N-14)
0.0011 | Cc1cccc(C[C@@H]2NC(=O)[C@H](CC(=O)O)NC(=O)[C@H](Cc3ccc(OCC(=O)O)cc3)NC(=O)[C@H](CN)NC(=O)CSC[C@@H](C(=O)N[C@@H](C)C(=O)N[C@@H](CCC(=O)O)C(=O)NCCCCCCCCCCC(=O)O)NC(=O)[C@H]([C@@H](C)O)NC(=O)[C@H](C(C)C)NC(=O)[C@H](CC3CCCCC3)NC(=O)[C@H](CCN)NC(=O)[C@@H](CC(C)C)NC(=O)[C@H](CCCN)NC(=O)[C@H](CCCNC(N)=O)NC(=O)[C@H](Cc3ccc(-c4ccccc4)cc3)NC(=O)[C@H](C(C)C)NC2=O)c1 [Compound 1005] ({CH2CO}-[Dap]Y(Carboxymethyl)D[Phe(3-Me)]V[Bip][Cit][Orn][dL][Dab][Cha]VTCAE[Aun]-OH; thioether N-14)
0.005 | Cc1cccc(C[C@@H]2NC(=O)[C@H](CC(=O)O)NC(=O)[C@H](Cc3ccc(OCC(=O)O)cc3)NC(=O)[C@H](CN)NC(=O)CSC[C@@H](C(=O)N[C@@H](CCN)C(=O)NCCOCCOCC(=O)NCCCCCCCCCCC(=O)O)NC(=O)[C@H](CCCN)NC(=O)[C@H](C(C)C)NC(=O)[C@H](CC3CCCCC3)NC(=O)[C@H](CCN)NC(=O)[C@@H](CC(C)C)NC(=O)[C@H](CCCN)NC(=O)[C@H](Cc3ccc(C(=O)O)cc3)NC(=O)[C@H](Cc3ccc(-c4ccccc4)cc3)NC(=O)[C@H](Cc3ccc(O)cc3)NC2=O)c1 [Compound 2042] ({CH2CO}-[Dap]Y(Carboxymethyl)D[Phe(3-Me)]Y[Bip][Phe(4-COOH)][Orn][dL][Dab][Cha]V[Orn]C[Dab][AEEA][Aun]-OH; thioether N-14)
0.0112 | CC(=O)NCCCC[C@@H]1NC(=O)[C@H](Cc2ccc(-c3ccccc3)cc2)NC(=O)[C@H](C(C)C)NC(=O)[C@H](Cc2cccc(C)c2)NC(=O)[C@H](CC(=O)O)NC(=O)[C@H](Cc2ccc(OCC(=O)O)cc2)NC(=O)[C@H](C(C)O)NC(=O)CSC[C@@H](C(=O)N[C@H](CC(N)=O)C(=O)NCCCCCCCCCCC(=O)O)NC(=O)[C@H](CCC(N)=O)NC(=O)[C@H](C(C)C)NC(=O)[C@H](CC2CCCCC2)NC(=O)[C@H](CCN)NC(=O)[C@@H](CC(C)C)NC(=O)[C@H](CCCN)NC1=O (stereo partly drawn) [Compound 3437] ({CH2CO}-[Thr(3ξ)]Y(Carboxymethyl)D[Phe(3-Me)]V[Bip]K(Ac)[Orn][dL][Dab][Cha]VQC[dN][Aun]-OH; thioether N-14)
0.0097 | Cc1cccc(C[C@@H]2NC(=O)[C@H](CC(=O)O)NC(=O)[C@H](Cc3ccc(OCC(=O)O)cc3)NC(=O)[C@H](CCCNC(=O)C3CC3)NC(=O)CSC[C@@H](C(=O)N[C@@H](CCCN)C(=O)N[C@@H](CO)C(=O)NCCCCCCCCCCCC(=O)O)NC(=O)[C@H](CO)NC(=O)[C@H](CCCCN)NC(=O)[C@H](CC3CCCCC3)NC(=O)[C@H](CCN)NC(=O)[C@@H](CC(C)C)NC(=O)[C@H](CCCN)NC(=O)[C@H](Cc3ccc(OCC(=O)O)cc3)NC(=O)[C@H](Cc3ccc(-c4ccccc4)cc3)NC(=O)[C@H](Cc3ccc(OCC(=O)O)cc3)NC2=O)c1 [Compound 3614] ({CH2CO}-[Orn](Cyclopropanecarbonyl)Y(Carboxymethyl)D[Phe(3-Me)]Y(Carboxymethyl)[Bip]Y(Carboxymethyl)[Orn][dL][Dab][Cha]KSC[Orn]S[12Ado]-OH; thioether N-14)

— US20260022142A1, “MACROCYCLIC IMMUNOMODULATORS” (Bristol-Myers Squibb Company, priority 2022, published 2026)
